Data as given in ChEMBL document CHEMBL1201862, “PubChem BioAssay data set” (2004).
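1) Cells in 96-well plates. 2) Compound, 48 h, 5 concentrations. 3) Linear interpolation between surrounding doses. 4) Unreached endpoint = highest concentration. Here, GI50 denotes the concentration required for 50% inhibition of growth.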 Active and inactive are the calls of the source. No stated cut-off is given here; in the data, active = GI50 up to about 1.1 µM and inactive = higher.

Legend:
Experiment in all cases: NCI tumour cell line growth inhibition, 48 h
[1] = system: HL-60
[2] = system: SF-268
[3] = system: SK-MEL-2
[4] = system: U-251
[5] = system: OVCAR-3
[6] = system: DLD-1
[7] = system: SW-620
[8] = system: XF498
[9] = system: SR
[10] = system: A549
[11] = system: SNB-78
[12] = system: NCI-H23
[13] = system: SF-539
[14] = system: RXF 393
[15] = system: KM-20L2
[16] = system: DMS-273
[17] = system: HOP-18
[18] = system: MDA-N
[19] = system: MDA-MB-231
[20] = system: DU-145

Structure (SMILES) | GI50 [1] | GI50 [2] | GI50 [3] | GI50 [4] | GI50 [5] | GI50 [6] | GI50 [7] | GI50 [8] | GI50 [9] | GI50 [10] | GI50 [11] | GI50 [12] | GI50 [13] | GI50 [14] | GI50 [15] | GI50 [16] | GI50 [17] | GI50 [18] | GI50 [19] | GI50 [20]
CCOC(=O)NC(=O)c1cn(CCNCCO)c(=O)[nH]c1=O | > 100 µM (inactive) | > 100 µM (inactive) | > 100 µM (inactive) | > 100 µM (inactive) | > 100 µM (inactive) | > 100 µM (inactive) | > 100 µM (inactive) | > 100 µM (inactive) | > 100 µM (inactive) | > 100 µM (inactive) | > 100 µM (inactive) | > 100 µM (inactive) | > 100 µM (inactive) |  |  |  |  |  |  | 
Cc1ccc(N(O)C(C)(C)C)cc1 | > 78.3 µM (inactive) | > 100 µM (inactive) | > 100 µM (inactive) | > 100 µM (inactive) | > 100 µM (inactive) | > 100 µM (inactive) | > 100 µM (inactive) | > 100 µM (inactive) |  | > 100 µM (inactive) |  | > 100 µM (inactive) | > 100 µM (inactive) | > 100 µM (inactive) | > 100 µM (inactive) | > 100 µM (inactive) | > 100 µM (inactive) |  |  | 
Cc1ccc(C(=O)C2CC3(CCC2(O)c2ccc(C)cc2)CC(=O)Nc2ccccc2C3=O)cc1 (stereo unspecified) | 10.5 µM (inactive) | > 100 µM (inactive) | > 100 µM (inactive) | 8.39 µM (inactive) | > 100 µM (inactive) |  | > 100 µM (inactive) |  | > 100 µM (inactive) | > 100 µM (inactive) |  | > 100 µM (inactive) | > 100 µM (inactive) | 16.1 µM (inactive) |  |  |  | > 100 µM (inactive) | > 100 µM (inactive) | > 100 µM (inactive)
CC(=O)Nc1ccc(C(=O)NN2C(=O)C(Cl)C2/C=C/c2ccccc2)cc1 (stereo unspecified) | > 100 µM (inactive) | > 100 µM (inactive) | > 100 µM (inactive) | > 100 µM (inactive) | > 100 µM (inactive) | > 100 µM (inactive) | > 100 µM (inactive) |  | > 100 µM (inactive) | > 100 µM (inactive) |  | > 100 µM (inactive) | > 100 µM (inactive) |  |  |  | > 100 µM (inactive) |  |  | 
O=[N+]([O-])c1cc2ncc(-c3ccccc3)c(O)c2cc1/C(Cl)=C/c1ccccc1 | 5.25 µM (inactive) | 3.62 µM (inactive) | 32.6 µM (inactive) | 6.5 µM (inactive) | 2.59 µM (inactive) | 3.83 µM (inactive) | 6.71 µM (inactive) | 8.24 µM (inactive) |  | 10.1 µM (inactive) | 8.73 µM (inactive) | 7.67 µM (inactive) | 11.6 µM (inactive) | 8.17 µM (inactive) | 17.7 µM (inactive) | 5.61 µM (inactive) | 2.11 µM (inactive) |  |  | 
Nc1nc(=O)n(CC(O)CO)s1 (stereo unspecified) | > 100 µM (inactive) | > 100 µM (inactive) | > 100 µM (inactive) | > 100 µM (inactive) | > 100 µM (inactive) | > 100 µM (inactive) | > 100 µM (inactive) |  | > 100 µM (inactive) | > 100 µM (inactive) |  | > 100 µM (inactive) | > 100 µM (inactive) | > 100 µM (inactive) | > 100 µM (inactive) | > 100 µM (inactive) | > 100 µM (inactive) |  |  | 
NC(=O)NN=C(CS)CS | 0.41 µM (active) | 34.8 µM (inactive) | 20.8 µM (inactive) | 21.6 µM (inactive) | 23.3 µM (inactive) | 34 µM (inactive) | 28.4 µM (inactive) | < 0.01 µM (active) |  | 22 µM (inactive) | 41 µM (inactive) | 22.7 µM (inactive) | 21.8 µM (inactive) | 40.2 µM (inactive) | 19.8 µM (inactive) | 20 µM (inactive) | 26.7 µM (inactive) |  |  | 
O=C(NCCCCCCNC(=O)n1cc(F)c(=O)[nH]c1=O)NCCCOCCOCCCNC(=O)C(O)C(O)C(O)C(O)CO (stereo unspecified) | > 2.29 µM (inactive) | > 2.5 µM (inactive) | > 2.5 µM (inactive) | > 2.5 µM (inactive) | > 2.5 µM (inactive) | 2.44 µM (inactive) | > 2.5 µM (inactive) | > 2.5 µM (inactive) |  | > 2.05 µM (inactive) | > 2.5 µM (inactive) | > 2.5 µM (inactive) | > 1.84 µM (inactive) | > 2.5 µM (inactive) | > 2.5 µM (inactive) | > 2.5 µM (inactive) | > 2.5 µM (inactive) |  |  | 
N=C(N)NS(=O)(=O)c1ccc(Nc2c3ccccc3nc3c(C(=O)N4CCN(CCO)CC4)ccc(Cl)c23)cc1 | > 100 µM (inactive) | > 100 µM (inactive) | > 100 µM (inactive) | > 100 µM (inactive) | > 100 µM (inactive) | > 100 µM (inactive) |  | > 100 µM (inactive) |  | > 100 µM (inactive) | 30.5 µM (inactive) | > 100 µM (inactive) | > 100 µM (inactive) | > 100 µM (inactive) | > 100 µM (inactive) |  |  |  |  | 
C[Si](C)(C)CC(N)=O | > 100 µM (inactive) |  | > 100 µM (inactive) | > 100 µM (inactive) | > 100 µM (inactive) | > 100 µM (inactive) | > 100 µM (inactive) | > 100 µM (inactive) |  | > 100 µM (inactive) | > 100 µM (inactive) |  |  | > 100 µM (inactive) | > 100 µM (inactive) | > 100 µM (inactive) | > 100 µM (inactive) |  |  | 
CC(=O)NC(Cc1ccsc1)C(=O)O (stereo unspecified) | > 100 µM (inactive) | > 100 µM (inactive) | > 100 µM (inactive) | > 100 µM (inactive) | > 100 µM (inactive) | > 100 µM (inactive) | > 100 µM (inactive) | > 35.4 µM (inactive) |  | > 100 µM (inactive) | > 100 µM (inactive) | > 100 µM (inactive) | > 100 µM (inactive) | > 100 µM (inactive) | > 100 µM (inactive) | > 100 µM (inactive) | > 100 µM (inactive) |  |  | 
COc1ccccc1NC(=O)/C(Cc1nc2ccc([N+](=O)[O-])cc2nc1O)=N\NC(=O)C[N+](C)(C)C | 12.3 µM (inactive) | > 100 µM (inactive) | > 100 µM (inactive) | > 100 µM (inactive) | 41.7 µM (inactive) |  | 48 µM (inactive) |  | 1.44 µM (inactive) | > 100 µM (inactive) |  | > 100 µM (inactive) | 49.5 µM (inactive) | > 100 µM (inactive) |  |  |  | 14.9 µM (inactive) | > 100 µM (inactive) | > 100 µM (inactive)
CCN(CC)c1ccc2cc(C(=O)Nc3ccc4[nH]c(C(=O)N5C[C@@H](CCl)c6c5cc(OC(=O)Nc5ccccc5)c5[nH]cc(C)c65)cc4c3)oc2c1 [CARZELESIN] | 0.000282 µM (active) | 0.00021 µM (active) | 0.000601 µM (active) |  | 245 µM (inactive) |  | 0.000321 µM (active) |  |  | 0.000162 µM (active) | 0.000995 µM (active) | 0.000311 µM (active) | 318 µM (inactive) | 0.000201 µM (active) | 944 µM (inactive) | 9.33e-05 µM (active) | < 0.1 µM (active) |  |  | 
